Experimental data as given in patent US10087188B2, “Benzamide imidazopyrazine Btk inhibitors” (MERCK SHARP & DOHME CORP., priority 2014, dated 2018).
Like-named read-outs stand apart in the source and are kept apart here.

Legend:
HeLa cells = experiment: [3H] Adenosine uptake assay; format: cell-based; settings: accumulation of tritiated adenosine into HeLa cells, compound concentration range 10 μM to 0.032 nM, read-out: ADU inhibition IC50 (adenosine uptake inhibition potency)
In short: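 Accumulation of tritiated adenosine in adherent HeLa cells, detected by scintillant-plate coincidence counting, gives IC50 via 4-parameter robust fit. Compound (constant 0.25% DMSO) applied 30 min ahead, then 60 min radiolabel exposure (added from 500 nM solution), ambient conditions, HBSS with 5% FBS.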

[1] = biological target: BTK enzyme (recombinant full-length BTK, hBTK) (Homo sapiens (Human), UniProt Q06187); experiment: Btk enzyme activity assay, LANCE TR-FRET; format: biochemical; settings: 50 pM hBTK, 2 μM biotin-A5-peptide, 25 μM ATP; 60 minute compound & enzyme incubation; read-out: BTK binding IC50
Description: Btk Enzyme Activity Assay Methods
BTK enzymatic activity was determined with the LANCE (Lanthanide Chelate Excite) TR-FRET (Time-resolved fluorescence resonance energy transfer) assay. […] After 60 minutes incubation with detection reagents, reaction plates were read on a PerkinElmer EnVision plate reader using standard TR-FRET protocol.

BTK enzyme (recombinant full-length BTK, hBTK), sequence (Q06187 whole entry): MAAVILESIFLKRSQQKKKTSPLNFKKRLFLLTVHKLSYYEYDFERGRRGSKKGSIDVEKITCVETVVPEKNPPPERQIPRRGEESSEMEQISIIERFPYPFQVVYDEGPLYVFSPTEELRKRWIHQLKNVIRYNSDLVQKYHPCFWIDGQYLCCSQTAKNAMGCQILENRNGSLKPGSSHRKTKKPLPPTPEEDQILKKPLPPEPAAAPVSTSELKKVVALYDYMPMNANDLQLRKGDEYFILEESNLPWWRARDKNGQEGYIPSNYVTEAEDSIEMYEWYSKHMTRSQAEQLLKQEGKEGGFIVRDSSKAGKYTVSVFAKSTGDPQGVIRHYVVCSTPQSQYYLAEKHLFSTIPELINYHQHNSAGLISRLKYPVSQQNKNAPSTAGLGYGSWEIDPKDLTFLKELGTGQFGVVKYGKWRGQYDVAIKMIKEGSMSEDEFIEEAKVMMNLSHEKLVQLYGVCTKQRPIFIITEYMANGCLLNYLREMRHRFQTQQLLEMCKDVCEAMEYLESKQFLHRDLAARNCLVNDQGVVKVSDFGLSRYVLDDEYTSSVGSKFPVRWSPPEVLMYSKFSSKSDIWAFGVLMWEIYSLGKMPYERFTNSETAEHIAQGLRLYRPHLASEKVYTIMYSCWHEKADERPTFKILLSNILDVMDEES

Question: Which results are given for COc1cc(C(=O)Nc2cc(C(F)(F)F)ccn2)cc(F)c1-c1nc(C23CCC(C(=O)O)(CC2)CC3)n2ccnc(N)c12 [Example 108, 4-[8-amino-1-(2-fluoro-6-methoxy-4-{[4-(trifluoromethyl)pyridin-2-yl]carbamoyl}phenyl)imidazo[1,5-a]pyrazin-3-yl]bicyclo[2.2.2] octane-1-carboxylic acid]?
Answer: IC50 (HeLa cells; Homo sapiens, HeLa): 6690 nM; IC50 [1]: 0.73 nM

Question: What does the source list for C[C@]1(C(=O)O)CC[C@@H](N2CCO[C@@H](c3nc(-c4ccc(C(=O)Nc5cc(C6CC6)ccn5)cc4F)c4c(N)nccn34)C2)CC1 [Example 198, cis-4-[(2R)-2-(8-amino-1-{4-[(4-cyclopropylpyridin-2-yl)carbamoyl]-2-fluorophenyl}imidazo[1,5-a]pyrazin-3-yl)morpholin-4-yl]-1-methylcyclohexanecarboxylic acid]?
Answer: IC50 (HeLa cells; Homo sapiens, HeLa): 2030 nM; IC50 [1]: 10.5 nM

Question: Which IC50 (HeLa cells; Homo sapiens, HeLa) does the source give for CCOc1cc(C(=O)Nc2cc(C(F)(F)F)ccn2)ccc1-c1nc(C2CCC(C)(C(=O)O)CC2)n2c(Cl)cnc(N)c12 (stereo not drawn) [Example 165, 4-[8-amino-5-chloro-1-(2-ethoxy-4-{[4-(trifluoromethyl)pyridin-2-yl]carbamoyl}phenyl)imidazo[1,5-a]pyrazin-3-yl]-1-methylcyclohexane-carboxylic acid] here?
Answer: 10000 nM

Question: And the IC50 [1]?
Answer: 4.4 nM

Question: Which IC50 (HeLa cells; Homo sapiens, HeLa) does the source give for CCOc1cc(C(=O)Nc2cc(C(F)(F)F)ccn2)ccc1-c1nc([C@@H]2CC[C@](C(=O)O)(C(C)C)C2)n2c(Cl)cnc(N)c12 [Example 112, (1R,3R)-3-[8-amino-5-chloro-1-(2-ethoxy-4-{[4-(trifluoromethyl)pyridin-2-yl]carbamoyl}phenyl)imidazo[1,5-a]pyrazin-3-yl]-1-(1-methylethyl) cyclopentane-carboxylic acid] here?
Answer: 10000 nM

Question: What about the IC50 [1] of the same compound?
Answer: 21.7 nM

Question: Nc1nccn2c([C@@H]3CC[C@H]4[C@H](C(=O)O)[C@H]43)nc(-c3ccc(C(=O)Nc4cc(C(F)(F)F)ccn4)cc3)c12 [Example 56, (1R,2R,5R,6S)-2-[8-amino-1-(4-{[4-(trifluoromethyl)pyridin-2-yl]carbamoyl}phenyl)imidazo[1,5-a]pyrazin-3-yl]bicyclo[3.1.0]hexane-6-carboxylic acid] was tested. Which IC50 (HeLa cells; Homo sapiens, HeLa) did it give?
Answer: 10000 nM

Question: What about the IC50 [1] of the same compound?
Answer: 0.52 nM

Question: For CCOc1cc(C(=O)Nc2cc(C(F)(F)F)ccn2)c(F)cc1-c1nc([C@@]2(C)CC[C@](C)(C(=O)O)C2)n2ccnc(N)c12 [Example 128, (1S,3S)-3-[8-amino-1-(2-ethoxy-5-fluoro-4-{[4-(trifluoromethyl)pyridin-2-yl]carbamoyl}phenyl)imidazo[1,5-a]pyrazin-3-yl]-1,3-dimethylcyclopentane carboxylic acid], which IC50 (HeLa cells; Homo sapiens, HeLa) is on record?
Answer: 9380 nM

Question: What about the IC50 [1] of the same compound?
Answer: 1.6 nM

Question: Which IC50 (HeLa cells; Homo sapiens, HeLa) does the source give for CC1(C)CC(c2nc(-c3ccc(C(=O)Nc4cc(C(F)(F)F)ccn4)cc3)c3c(N)nccn23)CCC1C(=O)O (stereo not drawn) [Example 20, 4-(8-amino-1-(4-((4-(trifluoromethyl)pyridin-2-yl)carbamoyl)phenyl)imidazo[1,5-a]pyrazin-3-yl)-2,2-dimethylcyclohexanecarboxylic acid] here?
Answer: 5080 nM

Question: And the IC50 [1]?
Answer: 1.5 nM

Question: What does the source list for C[C@]1(C(=O)O)CC[C@](C)(c2nc(-c3ccc(C(=O)Nc4cc(C(F)(F)F)ccn4)cc3)c3c(N)nccn32)CC1 [Example 30, trans-4-(8-amino-1-(4-((4-(trifluoromethyl)pyridin-2-yl)carbamoyl)phenyl)imidazo[1,5-a]pyrazin-3-yl)-1,4-dimethylcyclohexanecarboxylic acid]?
Answer: IC50 (HeLa cells; Homo sapiens, HeLa): 1450 nM; IC50 [1]: 0.74 nM

Question: For CCOc1cc(C(=O)Nc2cc(C(F)(F)F)ccn2)ccc1-c1nc(C23CCC(C(=O)O)(CC2=O)C(=O)C3)n2ccnc(N)c12 (stereo not drawn) [Example 64, 4-[8-amino-1-(2-ethoxy-4-{[4-(trifluoromethyl)pyridin-2-yl]carbamoyl}phenyl)imidazo[1,5-a]pyrazin-3-yl]-2,5-dioxobicyclo[2.2.2] octane-1-carboxylic acid], which IC50 (HeLa cells; Homo sapiens, HeLa) is on record?
Answer: 10000 nM

Question: What about the IC50 [1] of the same compound?
Answer: 2.6 nM

Question: How did the IC50 (HeLa cells) turn out when CC(C)(C(=O)O)C1CCC(c2nc(-c3ccc(C(=O)Nc4cc(C(F)(F)F)ccn4)cc3)c3c(N)nccn23)C1 (stereo not drawn) [Example 94, 2-{3-[8-amino-1-(4-{[4-(trifluoromethyl)pyridin-2-yl]carbamoyl}phenyl)imidazo[1,5-a]pyrazin-3-yl]cyclopentyl}-2-methylpropanoic acid] was run?
Answer: 10000 nM

Question: What about the IC50 [1] of the same compound?
Answer: 1.4 nM

Question: How did the IC50 (HeLa cells; Homo sapiens, HeLa) turn out when CCOc1cc(C(=O)Nc2cc(C(F)(F)F)ccn2)cc(F)c1-c1nc([C@@]2(C)CC[C@](C)(C(=O)O)C2)n2ccnc(N)c12 [Example 126, (1S,3S)-3-[8-amino-1-(2-ethoxy-6-fluoro-4-{[4-(trifluoromethyl)pyridin-2-yl]carbamoyl}phenyl)imidazo[1,5-a]pyrazin-3-yl]-1,3-dimethylcyclopentane carboxylic acid] was run?
Answer: 10000 nM

Question: What about the IC50 [1] of the same compound?
Answer: 0.47 nM

Question: Which IC50 (HeLa cells; Homo sapiens, HeLa) does the source give for Nc1nccn2c(C34CCC(C(=O)O)(CC3)CC4)nc(-c3ccc(C(=O)Nc4cc(C(F)(F)F)ccn4)cc3Cl)c12 [Example 151, 4-[8-amino-1-(2-chloro-4-{[4-(trifluoromethyl)pyridin-2-yl]carbamoyl}phenyl)imidazo[1,5-a]pyrazin-3-yl]bicyclo[2.2.2] octane-1-carboxylic acid] here?
Answer: 1490 nM

Question: What about the IC50 [1] of the same compound?
Answer: 0.38 nM

Question: How did the IC50 (HeLa cells; Homo sapiens, HeLa) turn out when C[C@]1(C(=O)O)CC[C@H](N2CCO[C@@H](c3nc(-c4ccc(C(=O)Nc5cc(C(F)F)ccn5)cc4)c4c(N)ncc(Cl)n34)C2)CC1 [Example 195, trans-4-{(2R)-2-[8-amino-5-chloro-1-(4-{[4-(difluoromethyl)pyridin-2-yl]carbamoyl}phenyl)imidazo [1,5-a]pyrazin-3-yl]morpholin-4-yl}-1-methylcyclohexanecarboxylic acid] was run?
Answer: 2440 nM

Question: And the IC50 [1]?
Answer: 1 nM

Question: What does the source list for CCOc1cc(C(=O)Nc2cc(C(F)(F)F)ccn2)ccc1-c1nc([C@H]2CCC[C@](C(=O)O)(C(C)C)C2)n2ccnc(N)c12 [Example 90, (1R,3S)-3-[8-amino-1-(2-ethoxy-4-{[4-(trifluoromethyl)pyridin-2-yl]carbamoyl}phenyl)imidazo[1,5-a]pyrazin-3-yl]-1-(1-methylethyl) cyclohexane-carboxylic acid]?
Answer: IC50 (HeLa cells; Homo sapiens, HeLa): 10000 nM; IC50 [1]: 1.8 nM

Question: Which results are given for Nc1nccn2c(C34CCCC(C(=O)O)(CC3)CC4)nc(-c3ccc(C(=O)Nc4cc(C(F)(F)F)ccn4)cc3)c12 [Example 68, 5-[8-amino-1-(4-{[4-(trifluoromethyl)pyridin-2-yl]carbamoyl}phenyl)imidazo[1,5-a]pyrazin-3-yl]bicyclo[3.2.2] nonane-1-carboxylic acid]?
Answer: IC50 (HeLa cells; Homo sapiens, HeLa): 274 nM; IC50 [1]: 0.23 nM

Question: For COc1cc(C(=O)Nc2cc(C(F)(F)F)ccn2)ccc1-c1nc([C@H]2CN(C3CCC(C)(C(=O)O)CC3)CCO2)n2ccnc(N)c12 (stereo partly drawn) [Example 180, 4-{(2R)-2-[8-amino-1-(2-methoxy-4-{[4-(trifluoromethyl)pyridin-2-yl]carbamoyl}phenyl)imidazo [1,5-a]pyrazin-3-yl]morpholin-4-yl}-1-methylcyclohexanecarboxylic acid], which IC50 (HeLa cells; Homo sapiens, HeLa) is on record?
Answer: 6420 nM

Question: What about the IC50 (HeLa cells) of the same compound?
Answer: 3940 nM

Question: What about the IC50 [1] of the same compound?
Answer: 1.3 nM

Question: How did the IC50 (HeLa cells; Homo sapiens, HeLa) turn out when COc1cc(C(=O)Nc2cc(C(F)(F)F)ccn2)ccc1-c1nc([C@H]2CN(C3CC(C(=O)O)C3)[C@@H](C)CO2)n2ccnc(N)c12 (stereo partly drawn) [Example 185, 3-{(2R,5S)-2-[8-amino-1-(2-methoxy-4-{[4-(trifluoromethyl)pyridin-2-yl]carbamoyl}phenyl)imidazo [1,5-a]pyrazin-3-yl]-5-methylmorpholin-4-yl}cyclobutanecarboxylic acid] was run?
Answer: 5860 nM

Question: And the IC50 [1]?
Answer: 3.2 nM

Question: How did the IC50 (HeLa cells; Homo sapiens, HeLa) turn out when CC(C)[C@]1(C(=O)O)CC[C@H](c2nc(-c3ccc(C(=O)Nc4cc(C(F)(F)F)ccn4)cc3Cl)c3c(N)nccn23)C1 [Example 92, (1S,3S)-3-[8-amino-1-(2-chloro-4-{[4-(trifluoromethyl)pyridin-2-yl]carbamoyl}phenyl)imidazo[1,5-a]pyrazin-3-yl]-1-(1-methylethyl) cyclopentane-carboxylic acid] was run?
Answer: 3240 nM

Question: And the IC50 [1]?
Answer: 0.51 nM

Question: Which results are given for CCOc1cc(C(=O)Nc2cc(C(F)(F)F)ccn2)c(F)cc1-c1nc([C@@H]2CC[C@](C)(C(=O)O)C2(C)C)n2ccnc(N)c12 [Example 114, (1S,3R)-3-[8-amino-1-(2-ethoxy-5-fluoro-4-{[4-(trifluoromethyl)pyridin-2-yl]carbamoyl}phenyl)imidazo[1,5-a]pyrazin-3-yl]-1,2,2-trimethylcyclopentane carboxylic acid]?
Answer: IC50 (HeLa cells; Homo sapiens, HeLa): 2750 nM; IC50 [1]: 0.92 nM

Question: For CC1(C(=O)O)CCC(C)(c2nc(-c3ccc(C(=O)Nc4cc(C(F)(F)F)ccn4)cc3)c3c(N)nccn23)C1 (stereo not drawn) [Example 21, 3-(8-amino-1-(4-((4-(trifluoromethyl)pyridin-2-yl)carbamoyl)phenyl)imidazo[1,5-a]pyrazin-3-yl)-1,3-dimethylcyclopentanecarboxylic acid], which IC50 (HeLa cells; Homo sapiens, HeLa) is on record?
Answer: 1700 nM

Question: And the IC50 [1]?
Answer: 0.27 nM

Question: Which results are given for CCOc1cc(C(=O)Nc2cc(C(F)(F)F)ccn2)ccc1-c1nc(C23CCC(C(=O)O)(CC2)C3)n2ccnc(N)c12 [Example 103, 4-[8-amino-1-(2-ethoxy-4-{[4-(trifluoromethyl)pyridin-2-yl]carbamoyl}phenyl)imidazo[1,5-a]pyrazin-3-yl]bicyclo[2.2.1] heptane-1-carboxylic acid]?
Answer: IC50 (HeLa cells; Homo sapiens, HeLa): 1880 nM; IC50 [1]: 0.52 nM

Question: How did the IC50 (HeLa cells; Homo sapiens, HeLa) turn out when Nc1nccn2c(-c3ccc(F)c(C(=O)O)c3)nc(-c3ccc(C(=O)Nc4cc(C(F)(F)F)ccn4)cc3)c12 [Example 24, 5-[8-amino-1-(4-{[4-(trifluoromethyl)pyridin-2-yl]carbamoyl}phenyl)imidazo[1,5-a]pyrazin-3-yl]-2-fluorobenzoic acid] was run?
Answer: 10000 nM

Question: What about the IC50 [1] of the same compound?
Answer: 1 nM
